Source: US20100172854A1, “ANTIBACTERIAL FORMULATIONS” (priority 2007, published 2010)

Tests used:
[1] = system: Actinomyces naeslundii ATCC 12104; assay: MIC assay; type: cell-based
Procedure: (§1) This is a standard international method for quantitatively assessing the antimicrobial activity of a compound in a liquid medium. The method used a sterile 96-well microtitre plate, capable of holding about 200 μl of liquid per well. The wells contained liquid culture medium and ranges of decreasing concentrations of the relevant test compound in doubling dilutions (e.g. 1000, 500, 250, 125 . . . μg/ml, etc. down to 0.49 μg/ml). The culture media were as described above.
(§2) The wells were inoculated with a liquid suspension of freshly grown micro-organism and incubated under the conditions described above. After incubation, the microtitre plate was examined visually (with the aid of a light box) for cloudiness in each well, which would indicate microbial growth. The MIC value was recorded as the lowest concentration of test compound required to inhibit microbial growth, i.e. the lowest concentration for which the liquid in the well remained clear.
(§3) The assays included both negative (culture medium with no micro-organisms) and positive (culture medium plus diluting solvent plus micro-organism) controls.

[2] = system: Listeria monocytogenes ATCC 15313; assay: MIC assay; type: cell-based
Procedure: as §1, §2, §3

[3] = system: Bacillus cereus ATCC 11778; assay: MIC assay; type: cell-based
Procedure: as §1, §2, §3

[4] = system: Streptococcus pyogenes ATCC 12344; assay: MIC assay; type: cell-based; details: ATCC12344; Streptococcus pyogenes ATCC 12344
Procedure: as §1, §2, §3

[5] = system: Enterococcus faecalis ATCC 29212; assay: MIC assay; type: cell-based; details: Enterococcus faecalis, ATCC29212
Procedure: as §1, §2, §3

[6] = system: Corynebacterium mucifaciens ATCC 700355; assay: MIC assay; type: cell-based; details: Corynebacterium mucifaciens, ATCC700355
Procedure: as §1, §2, §3

[7] = system: Prevotella nigrescens ATCC 33563; assay: MIC assay; type: cell-based; details: ATCC33563
Procedure: as §1, §2, §3

[8] = system: Clostridium difficile ATCC 7000057; assay: MIC assay; type: cell-based; details: Clostridioides difficile, ATCC7000057
Procedure: as §1, §2, §3

[9] = system: Streptococcus sobrinus ATCC 33478; assay: MIC assay; type: cell-based; details: ATCC33478
Procedure: as §1, §2, §3

[10] = system: Clostridium sporogenes ATCC 3584; assay: MIC assay; type: cell-based; details: ATCC3584
Procedure: as §1, §2, §3

[11] = system: Gardnerella vaginalis ATCC 14018; assay: MIC assay; type: cell-based; details: ATCC14018
Procedure: as §1, §2, §3

[12] = system: S. aureus CPHL EMRSA 17; assay: MBC assay; type: cell-based, Staphylococcus aureus; details: resistance phenotype Met/β-lactams
Procedure: (§4) The staphylococci were cultured and maintained on Mueller-Hinton Medium (agar and broth) at pH 7.2; cultures were incubated aerobically at 37° C. for 19-20 hours.
(§5) This assay, normally carried out after an MIC assay, determines the minimum concentration of a compound that is lethal to the micro-organism being tested.
(§6) These samples were then individually sub-cultured on antibiotic-free agar medium, under the incubation conditions described above. Following incubation they were examined visually for microbial growth.

[13] = system: S. aureus CPHL EMRSA 16; assay: MBC assay; type: cell-based, Staphylococcus aureus; details: resistance phenotype Met/β-lactams
Procedure: as §4, §5, §6

[14] = system: S. aureus CPHL EMRSA 15; assay: MBC assay; type: cell-based, Staphylococcus aureus; details: resistance phenotype Met/β-lactams
Procedure: as §4, §5, §6

[15] = system: S. aureus CPHL GISA HO41340156; assay: MBC assay; type: cell-based, Staphylococcus aureus; details: resistance phenotype Van/Tec (intermediate)
Procedure: as §4, §5, §6

[16] = system: S. aureus ATCC 12607; assay: MBC assay; type: cell-based, Staphylococcus aureus
Procedure: as §4, §5, §6

[17] = system: S. aureus ATCC 12605; assay: MBC assay; type: cell-based, Staphylococcus aureus
Procedure: as §4, §5, §6

[18] = system: S. aureus ATCC 12600-U; assay: MBC assay; type: cell-based, Staphylococcus aureus
Procedure: as §4, §5, §6

[19] = system: P. granulosum PPR-006; assay: Agar dilution MIC assay; type: cell-based, Propionibacterium granulosum; details: Propionibacterium, PPR006
Procedure: The propionibacteria were cultured and maintained on Wilkins-Chalgren Anaerobe Medium (agar and broth) at pH 6.0; all cultures were incubated anaerobically at 37° C. for 72 hours.
This is a standard international method for quantitatively assessing the antimicrobial activity of a compound in a solid medium. The test compound was prepared to 40× the highest concentration required (e.g. 10 mg/ml for a final concentration of 250 μg/ml) and a series of doubling dilutions were performed in a suitable solvent. A set amount of these antimicrobial stock solutions was then added to molten agar medium (ca. 55° C.), mixed thoroughly, poured into sterile Petri dishes and allowed to cool/set. The culture medium was as described above.
A Multipoint™ Inoculator (AQS Manufacturing Ltd, UK) was used to inoculate the plates by spotting the inocula onto the surface of the agar, delivering approximately 1 to 2 μl per spot (yielding 10^5 CFU (colony forming units) per spot).
The plate(s) were then incubated under the conditions described above, following which they were examined visually for signs of bacterial growth. The MIC value was ascertained when there was a marked reduction in, or total loss of, growth on the test plate at the lowest concentration as compared to that of the growth on the control plate. […]

[20] = system: Streptococcus pyogenes ATCC 12344; assay: MBC assay; type: cell-based
Procedure: as §5, §6

[21] = system: Clostridium difficile ATCC 7000057; assay: MBC assay; type: cell-based
Procedure: as §5, §6

[22] = system: Streptococcus mutans ATCC 25175; assay: MBC assay; type: cell-based
Procedure: (§7) The S. mutans strains were cultured and maintained on Wilkins-Chalgren Anaerobe Medium (agar and broth) at pH 7.0 supplemented with 1 g/L glucose; all cultures were incubated at 37° C. for 48 h in an atmosphere containing 5% CO2.
as §5, §6

[23] = system: Streptococcus mutans ATCC 35668; assay: MBC assay; type: cell-based
Procedure: as §7, §5, §6

Cc1cc(Cc2cc(C)cc(C(C)(C)C)c2O)c(O)c(C(C)(C)C)c1 [AO 2246, 2,2′-methylene-bis(4-methyl-6-tert-butylphenol)]
3.9 mg/L: MIC [8] | MIC [10] | MBC ([15]; Staphylococcus aureus) | MBC ([21]; Clostridioides difficile, ATCC7000057)
1.95 mg/L: MIC [1] | MIC [2] | MIC [3] | MIC [5] | MIC [6] | MBC ([17]; Staphylococcus aureus, ATCC12605) | MIC [19]
62.5 mg/L: MBC ([22]; ATCC25175)
0.98 mg/L: MIC [4] | MBC ([20]; ATCC12344)
15.6 mg/L: MIC [9] | MIC [11] | MBC ([18]; Staphylococcus aureus, ATCC12600)
0.06: MIC/MBC Ratio [18]
0.5: MIC/MBC Ratio [15] | MIC/MBC Ratio [22]
0.25: MIC/MBC Ratio [12] | MIC/MBC Ratio [13] | MIC/MBC Ratio [14] | MIC/MBC Ratio [16] | MIC/MBC Ratio [23]
31.2 mg/L: MBC ([23]; ATCC35668)
1: MIC/MBC Ratio [17] | MIC/MBC Ratio [20] | MIC/MBC Ratio [21]
7.8 mg/L: MIC [7] | MBC ([12]; Staphylococcus aureus) | MBC ([13]; Staphylococcus aureus) | MBC ([14]; Staphylococcus aureus) | MBC ([16]; Staphylococcus aureus, ATCC12607)
